Data published in US20160046672A1, “STAPLING eIF4E INTERACTING PEPTIDES” (AGENCY FOR SCIENCE, TECHNOLOGY AND RESEARCH, priority 2013, published 2016).

Columns and labels:
circular dichroism = settings: 5 mM sodium phosphate; pH 7.0; ns °C; 0.5 or 2 mg/mL
eIF4E [1] = target: T1, eIF4E (Homo sapiens, UniProt P06730); assay: eIF4E affinity (SPR/FP, method not named); format: binding
T1 construct: made in house
Protocol: Apparent Kd values were determined for a variety of molecules via competitive anisotropy anisotropy experiments. Titrations were carried out with the concentrations eIF4E held constant at 200 nM, respectively and the labeled peptide at 50 nM. The competing molecules were then titrated against complex of the FAM labeled peptide and protein. Apparent Kd values were determined by fitting the experimental data to the equations shown below: […]
Six buffer blanks were first injected to equilibrate the instrument fully and then a solvent correction curve was performed followed by a further two blank injections. […] Using a flow rate of 50 μl/min, compounds were injected for 60 s and dissociation was monitored for 180 s. The data collection rate was 10 Hz. Kds were determined using the BiaEvaluation software (Biacore) and calculated kinetically from the dissociation and association phase data for each of the peptides. The kinetic data were fitted to 1:1 binding models. Each individual peptide Kd was determined from three separate titrations. Within each titration at least two concentration points were duplicated to ensure stability and robustness of the chip surface.

MDA-MB-231 cells [2] = assay: Normalized luminescence / cell viability, FIG. 12A; format: cell-based; settings: MDA-MB-231, increasing peptide concentration
Protocol: (§1) FIG. 12A is a dot plot representing normalized luminescence in MDA-MB-468 and MDA-MB-231 cells over increased concentration of staple peptides. MDA-MB-468 and MDA-MB-231 cells were lysed and a recombinant luciferase protein was added to the lysed cells.

MDA-MB-468 cells = assay: Normalized luminescence / cell viability, FIG. 12A; format: cell-based; settings: MDA-MB-468, increasing peptide concentration
Protocol: as §1

MDA-MB-231 cells [3] = assay: Western Blot of protein levels in treated cells, FIG. 12B; format: cell-based; settings: MDA-MB-231, absence or presence of 10% Fetal calf serum, 1% DMSO
Source text: Actin protein is a loading control to indicate that the same amount of proteins was loaded into each well.

[4] = Circular dichroism, percent α-helicity in solution; format: physicochemical; settings: CD, 5 mM sodium phosphate buffer pH 7.0
Protocol: CD was measured on a JASCO J-810 spectropolarimeter, and spectra were either recorded with a quartz cuvette (Helmer) with a pathlength of 0.01 cm or 0.1 cm in 5 mM sodium phosphate buffer (pH 7.0). FUV CD spectra were recorded from 260 nm to 200 nm at a peptide concentration of either 2 mg/ml or 0.5 mg/ml, respectively. The CD signal was converted into mean residue ellipticity in units of degree·cm^2·dmol^−1·residue^−1. CD spectra were recorded at a data pitch of 0.2 nm at 50 nm min^−1, a response time of 2 s, and a bandwidth of […]. Once converted to mean residue ellipticity, percent α-helicity can be calculated with equation (1) and (2): […]

eIF4E [5] = target: T1, eIF4E; assay: Competitive fluorescence anisotropy (FP) assay against FAM labeled tracer peptide; format: binding
Protocol: Apparent Kd values were determined for a variety of molecules via competitive anisotropy anisotropy experiments. Titrations were carried out with the concentrations eIF4E held constant at 200 nM, respectively and the labeled peptide at 50 nM. […] Apparent Kd values were determined by fitting the experimental data to the equations shown below:
[L]st and [L]t denote labeled ligand and total unlabeled ligand input concentrations, respectively. Kd2 is the dissociation constant of the interaction between the unlabelled ligand and the protein. […] Readings were carried out with an Envision Multilabel Reader (PerkinElmer). […] All titrations were carried out in triplicate. Curve-fitting was carried out using Prism 4.0 (GraphPad).

T1 sequence (P06730 whole entry): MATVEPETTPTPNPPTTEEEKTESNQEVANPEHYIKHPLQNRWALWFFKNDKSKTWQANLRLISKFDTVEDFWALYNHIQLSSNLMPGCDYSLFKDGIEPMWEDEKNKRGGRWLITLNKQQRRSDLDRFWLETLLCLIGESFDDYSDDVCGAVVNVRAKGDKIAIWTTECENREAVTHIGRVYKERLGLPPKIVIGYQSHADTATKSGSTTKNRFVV

| Structure (SMILES) | helicity (circular dichroism) | fold decrease / improvement in Kd over eIF4G^D5S (eIF4E [1]; stronger binding) | cell viability (normalized luminescence) (MDA-MB-231 cells [2]) | cell viability (normalized luminescence) (MDA-MB-468 cells) | Bcl-XL protein levels (MDA-MB-231 cells [3]) | survivin protein levels (MDA-MB-231 cells [3]) | affinity / binding to eIF4E (in words) (eIF4E [1]) | Helicity (%) [4] | displacement of the FAM labeled peptide in the competition assay (eIF4E [5]) |
| --- | --- | --- | --- | --- | --- | --- | --- | --- | --- |
| CC(=O)N[C@@H](CCCCN)C(=O)N[C@@H](CCCCN)C(=O)N[C@@H](CCCNC(=N)N)C(=O)N[C@@H](Cc1ccc(O)cc1)C(=O)N[C@@H](CO)C(=O)N[C@@H](CCCNC(=N)N)C(=O)N[C@@H](CCC(=O)O)C(=O)N[C@]1(C)CCCC=CCCC[C@@](C)(C(=O)N[C@@H](Cc2ccccc2)C(N)=O)NC(=O)[C@H](CC(C)C)NC(=O)[C@H](CC(C)C)NC1=O [sTIP-03, KKRYSRE*LL*F] | 45% | 17 fold | decreases cell viability in a dose-dependent manner | decreases cell viability in a dose-dependent manner | down-regulates | down-regulates | – | – | – |
| CC(=O)N[C@@H](CCCCN)C(=O)N[C@@H](CCCCN)C(=O)N[C@@H](CCCNC(=N)N)C(=O)N[C@@H](Cc1ccc(O)cc1)C(=O)N[C@@H](CO)C(=O)N[C@@H](CCCNC(=N)N)C(=O)N[C@@H](CCC(=O)O)C(=O)NC(C)(C)C(=O)N[C@@H](CC(C)C)C(=O)N[C@@H](CC(C)C)C(=O)NCC(=O)NC(C)(C)C(N)=O [TIP-02, KKRYSREXLLGX] | 0% | – | – | – | – | – | greatly reduced affinity for eIF4E | 0/ % | failed to displace the FAM labeled peptide |
